Reference: PubChem BioAssay AID179 (DTP/NCI, 2004)
The source made the active and inactive calls.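 The calls were made as follows: active = compounds giving half or more protection of infected cells from virus-caused growth loss, again on retest; inactive = the rest.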

Test system: CEM cells HIV-1 protection, formazan growth assay
Experiment: NCI AIDS Antiviral Assay
Conditions: for IC50: measured here: growth of uninfected CEM cells
Method in brief: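 CEM (human) cells, HIV-1 infected vs uninfected, 5-point dosing, formazan growth read-out. Retest threshold 50% protection.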

`COc1ccc(N2C(=O)C3CSCN3C2=O)cc1` (stereo not drawn) gave an EC50 of over 200 µM and an IC50 of over 200 µM.
`NC(=O)C(=O)N/N=C/c1ccc([N+](=O)[O-])o1` gave an EC50 of over 200 µM and an IC50 of 8.32 µM.
Work on `CC(C)(CCC(C)(C)N1OC1c1ccccc1)N1OC1c1ccccc1` (stereo not drawn) yielded an EC50 of over 200 µM and an IC50 of 19.1 µM.
Work on `CC(=O)OCCCC(NC(=O)OC(C)(C)C)C(=O)NC(CCCOC(C)=O)C(=O)NC(Cc1ccc([N+](=O)[O-])cc1)C(=O)NCC(=O)OCc1ccccc1` (stereo not drawn) yielded an EC50 of over 200 µM and an IC50 of 16.2 µM.
With `c1ccc2c(c1)C1CCCCCC21N1CCOCC1` (stereo not drawn) the EC50 was over 200 µM and the IC50 was 170 µM.
In the case of `CC1=CN2C(c3ccccc3)=NON(c3ccc(C)cn3)C2C=C1` (stereo not drawn), the EC50 is reported as over 21.4 µM and the IC50 is reported as over 21.4 µM.
With `CN(/N=C/c1ccnc2ccccc12)c1ccc([N+](=O)[O-])cc1[N+](=O)[O-]` the outcome was “inactive”.
In the case of `CC(=O)NNc1nc(C)c(C(=O)/C=C/c2ccc(N(C)C)cc2)s1`, the EC50 is reported as over 55 µM and the IC50 is reported as over 55 µM.
Molecule `CN(C)C=Nc1ccc2nonc2c1` has an EC50 of over 200 µM and an IC50 of 151 µM.
In the case of `COc1ccc(C2c3ccccc3C3(O)CC2CC(=O)O3)cc1` (stereo not drawn), the EC50 is reported as over 200 µM and the IC50 is reported as over 100 µM.
For `CC(=O)OC12CCCCC(CCCC1)O2`, the EC50 was over 200 µM and the IC50 was over 200 µM.
`O=C1c2cscc2C(=O)c2sccc21` gave an EC50 of over 200 µM and an IC50 of 23.4 µM.
`COc1cc2cccc(NC(=O)c3cc(OC)c(OC)c(OC)c3Br)c2cc1OC` was tested, and the outcome was “inactive”.
For `COc1cc(CN(C)N2C(=O)c3cccc4cc([N+](=O)[O-])cc(c34)C2=O)cc(OC)c1OC`, the outcome was “inactive”.
With `O=C(c1ccc(Cl)cc1)N(C(=S)N1CCN(c2ccccn2)CC1)C1CCCCC1` the EC50 was over 11.7 µM and the IC50 was 8.51 µM.
With `CN(C)C(=C1C(Br)=C(Br)C(Br)=C1Br)N(C)C` the outcome was “inactive”.
With `COC(=O)C1=C(C(=O)[C@H](Cc2ccccc2)NC(=O)c2ccccc2)CCC1` the EC50 was over 95.5 µM and the IC50 was 89.1 µM.
`COc1cc(/C=C2/CCCc3ccccc3C2=O)cc(OC)c1OC` showed an EC50 of over 200 µM and an IC50 of 11.7 µM.
For `O=[N+]([O-])c1ccc(-c2ccc(-c3csc(Nc4ccccc4)n3)o2)cc1`, the EC50 was over 37.2 µM and the IC50 was 6.76 µM.
For `COc1ccc(C(=O)CCC(NC(C)=O)C(=O)O)cc1` (stereo not drawn), the EC50 was over 100 µM and the IC50 was over 100 µM.
Molecule `[N-]=[N+]=Nc1c(-c2ccccc2)c(Cl)nc2ccccc12` has an EC50 of over 200 µM and an IC50 of 20.4 µM.
`O=C(CC(NC(=O)C(F)(F)F)C(=O)O)OCc1ccccc1` (stereo not drawn) gave an EC50 of over 200 µM and an IC50 of over 200 µM.
Molecule `O=C1CCCc2cc3c(cc21)CC1(Cc2ccccc2C1)C3` has an EC50 of over 200 µM and an IC50 of 1.29 µM.
In the case of `Cc1cnc(C)c(-c2cc3ccccc3[nH]2)n1`, the EC50 is reported as over 32.4 µM and the IC50 is reported as over 32.4 µM.
With `CC(=O)OCC1OC(Nn2c(=O)[nH]c3ccccc3c2=O)C(OC(C)=O)C(OC(C)=O)C1OC(C)=O` (stereo not drawn) the EC50 was over 158 µM and the IC50 was 117 µM.
With `COc1c(Cl)cc(C(=CCNC(=O)C[C@H]2CC[C@@]3(C)[C@@H](CC[C@@H]4[C@@H]3CC[C@]3(C)[C@@H](CC(=O)NCC=C(c5cc(Cl)c(OC)c(C(=O)O)c5)c5cc(Cl)c(OC)c(C(=O)O)c5)CC[C@@H]43)C2)c2cc(Cl)c(OC)c(C(=O)O)c2)cc1C(=O)O` the EC50 was 42.7 µM and the IC50 was 186 µM.
For `Cc1ccccc1C(=O)c1ccccc1C(=O)O`, the EC50 was 200 µM and the IC50 was 617 µM.
`COc1ccc(C(=O)N2CCN(c3ccc4[nH]c(=O)oc4c3)CC2)cc1` showed an EC50 of over 200 µM and an IC50 of over 200 µM.
With `Cc1ccc(C(=O)C2C=C(c3ccc(C)cc3)SC3C=CCC32)cc1` (stereo not drawn) the EC50 was over 200 µM and the IC50 was 14.8 µM.
`CN(C)C=C1C=CC=C1` gave an EC50 of 166 µM and an IC50 of over 200 µM.
With `COC1(O)C(=O)c2ccccc2OC1(OC)c1ccc(Cl)cc1` (stereo not drawn) the EC50 was over 200 µM and the IC50 was 4.57 µM.
In the case of `O=c1[nH]nnc2cc(Cl)ccc12`, the EC50 is reported as over 200 µM and the IC50 is reported as over 200 µM.
With `COC1CC(OC2C(C)OC(OC3C(C)OC(OC4C(O)CC(O[C@H]5CC[C@@]6(C)C(=CC[C@]7(O)[C@@H]6C[C@@H](OC(C)=O)[C@@]6(C)[C@]7(O)CC[C@@]6(O)C(C)=O)C5)OC4C)CC3OC)CC2OC)OC(C)C1O` (stereo partly drawn) the EC50 was over 200 µM and the IC50 was over 200 µM.
In the case of `O=C(O)CCSCCCCCCCCCCSCCC(=O)O`, the EC50 is reported as over 74.1 µM and the IC50 is reported as over 74.1 µM.
For `CC(C)(C)C1CC[C@H](O)[C@H]([C@H](O)CC2CC(=O)N(c3ccccc3)C(=O)C2)C1` (stereo partly drawn), the EC50 was over 200 µM and the IC50 was over 200 µM.
`Cc1cc(C2(c3cc(C)c(O)cc3C)OS(=O)(=O)c3ccccc32)c(C)cc1O` was tested, and the outcome was “inactive”.
Molecule `Cc1cc(N(CCC#N)CCC#N)ccc1N=Nc1cccc(Cl)c1` has an EC50 of over 7.76 µM and an IC50 of over 7.76 µM.
`CC1OC(OC2CC(O)(C(=O)CO)Cc3c(O)c4c(c(O)c32)C(=O)c2ccccc2C4=O)CC(N)C1O` (stereo not drawn) showed an EC50 of over 0.2 µM and an IC50 of 0.0631 µM.
`CCOC(=O)C1C(=O)CC(C)(O)C(C(=O)OCC)C1c1ccc(O)c(OC)c1` (stereo not drawn) was tested, and the EC50 was over 200 µM and the IC50 was over 200 µM.
`CC1(Cl)C(=O)NC(=O)N(C2CC(N=[N+]=[N-])C(CO)O2)C1N=[N+]=[N-]` (stereo not drawn) showed an EC50 of 3.89 µM and an IC50 of 282 µM.
In the case of `CCOC(=O)C(NC(=O)CC)(Nc1ccc(F)cc1F)C(F)(F)F` (stereo not drawn), the EC50 is reported as over 200 µM and the IC50 is reported as over 200 µM.
In the case of `OCn1nnc2ccccc21`, the outcome is reported as “inactive”.
